Experimental data taken from PubChem BioAssay AID1963597 (National Center for Advancing Translational Sciences (NCATS), 2024).

What follows are compounds tested on human liver microsomes, metabolic stability half-life (assay: NCATS Human Liver Microsomal (HLM) Stability Profiling). Conditions: higher = more stable; screened at 1 µM (by protocol).
Text: Assay submitter (PI): Dr. Pranav Shah
NIH Center for Advancing Translational Sciences
Pharmacokinetic issues were the leading cause of drug attrition, accounting for approximately 40% of all cases before the turn of the century. To this end, several high-throughput in vitro assays like microsomal stability have been developed to evaluate the pharmacokinetic profiles of compounds in early stages of drug discovery. At NCATS, a single-point rat liver microsomal (RLM) stability assay is used as a Tier I assay, while human liver microsomal (HLM) stability is employed as a Tier II assay. While it is beneficial to have compound libraries screened for HLM stability, the increasing magnitude of hits routinely generated, and the time- and re-source-intensive nature of the assay makes it important to find alternatives. One strategy is to rely on in silico models that have been developed using data generated from these assays. Herein, we describe the development of an HLM stability prediction model using our in-house dataset of ~7,000 compounds, employing both traditional and advanced machine learning methods. Additionally, the strong correlation between our RLM and HLM data was further reinforced by the fact that our HLM model performance improved after adding RLM stability predictions as an input descriptor. […] The best model along with a subset of our dataset has been made publicly accessible on the NCATS@ADME website for the benefit of the greater drug discovery community.
Microsomal Stability Assay
The substrate depletion method, also called the in vitro t1/2 method was used to analyze test compounds. Incubation and liquid handling were carried out using a previously described method (Shah et al., 2016). Briefly, each reaction mixture (110 µL) consisted of a test article (1 µM), human liver microsomes (0.5 mg/mL), and NADPH regenerating system in phosphate buffer at pH 7.4. Samples were incubated in 384-well plates at 37 degrees C for 0, 5, 10, 15, 30 and 60 min. At each time point, 10 µL of the incubation mixture was aspirated into another 384-well plate which contained cold acetonitrile (ACN) with internal standard (albendazole). All plates were centrifuged at 3000 rpm for 20 min at 4 degrees C, and the supernatants were transferred to a 384-well injection plate. Sample quantification and analysis was performed using a previously described method (Shah et al., 2016, Siramshetty et al., 2020).
1: Shah, P. et al. An Automated High-Throughput Metabolic Stability Assay Using an Integrated High-Resolution Accurate Mass Method and Automated Data Analysis Software. Drug Metab Dispos 44, 1653-1661 (2016).
2: Siramshetty et al. Retrospective assessment of rat liver microsomal stability at NCATS: data and QSAR models. Sci Rep 26;10(1):20713 (2020).

Row | Structure (SMILES) | half-life [min]
1 | COc1cccc(OC)c1-c1nc(C(=O)N[C@@H](CC(C)C)C(=O)O)cn1-c1ccnc2cc(Cl)ccc12 | > 120
2 | CN1C(=O)C(Cc2ccc3ccccc3c2)N=C(c2ccc(O)cc2)c2cc(Cl)ccc21 (stereo unspecified) | > 120
3 | CCC[C@H](N[C@@H](C)C(=O)N1[C@H](C(=O)O)C[C@@H]2CCCC[C@@H]21)C(=O)OCC | > 120
4 | CCNCc1nc2c(N)nc3ccccc3c2n1CC(C)(C)O | > 120
5 | Cc1c(-c2ccnn2C)cc(C(=O)NCc2ccc(S(C)(=O)=O)cn2)c(=O)n1-c1cccc(C(F)(F)F)c1 | > 120
6 | COc1ccc2cc(-c3cc(-c4cc(Cl)cc(Cl)c4)nn3C(C)c3ccc(C(=O)NCCC(=O)O)cc3)ccc2c1 (stereo unspecified) | > 120
7 | COc1cc(OC)cc(OC)c1 | 18.1
8 | CCC(=O)NS(=O)(=O)c1ccc(-c2c(-c3ccccc3)noc2C)cc1 | 48.5
9 | CO/N=C(\C(=O)O)c1csc(NC(=O)CCl)n1 | 11.4
10 | O=C1CN2CCOC2(c2ccccc2Cl)c2cc(Cl)ccc2N1 (stereo unspecified) | 4.56
11 | CC(C)(C)c1ccc(-c2nc(SCC(=O)Nc3ccc(Cl)cc3)[nH]c(=O)c2C#N)cc1 | 19.2
12 | CC#C[C@@H](CC(=O)O)c1ccc(OCc2ccc(CN3CCC4(C=Cc5ccccc54)CC3)s2)cc1 | 25.1
13 | O=C(CC1N=C2c3ccccc3N=C(SCc3ccc(Cl)cc3)N2C1=O)NCCc1ccccc1 (stereo unspecified) | 4.19
14 | Nc1ncnc2c1c(COc1cccc(Cl)c1)nn2C1CCOCC1 | 39.9
15 | CN(C)CCC[C@@]1(c2ccc(F)cc2)OCc2cc(C#N)ccc21 | > 120
16 | C[C@@H]1O[C@@H](O[C@H]2C[C@@H](O)[C@]3(CO)[C@H]4[C@H](O)C[C@]5(C)[C@@H](C6=CC(=O)OC6)CC[C@]5(O)[C@@H]4CC[C@]3(O)C2)[C@H](O)[C@H](O)[C@H]1O | > 120
17 | CNC(=O)c1ccccc1Nc1nc(Nc2ccc(N3CCOCC3)cc2OC)ncc1Cl | 34.9
18 | COc1ccncc1C(=O)NC(=O)Nc1ccc(-c2ccccc2)c(C(F)(F)F)c1 | > 120
19 | CCn1c(C(=O)NCc2ccccc2Cl)cc2sc(Cl)cc21 | 7.52
20 | [O-][n+]1cccc(CO)c1 | > 120
21 | COc1ccc(Nc2cc(-c3cnc(N)nc3)nc(N3CCOCC3)n2)cn1 | 39.3
22 | COc1cc2c(cc1OC)CN(C(=O)[C@@H](NCc1ccncc1)C(C)(C)C)CC2 | 2.24
23 | Cc1cccc(C)c1NC(=O)CN1CCCC1 | > 120
24 | Cc1cc(=O)n(-c2ccccc2)n1C | > 120
25 | Cc1csc(NC(=O)c2ccc(COc3cccc(Cl)c3)o2)n1 | 14.9
26 | Cc1ccc(-c2ccccc2C#N)cc1 | 1

Row | Structure (SMILES) | half-life [min]
27 | COc1ccccc1CN[C@H]1C2CCN(CC2)[C@H]1C(c1ccccc1)c1ccccc1 | 35
28 | CN(C)c1cc2c(cc1Sc1nc3c(N)nccc3n1CCNCC(C)(C)C)OCO2 | 3.18
29 | C[C@@H](N)[C@@H](O)c1ccccc1 | 92.4
30 | Nc1c(Br)cc(Br)cc1CNC1CCC(O)CC1 (stereo unspecified) | 110
31 | Cc1coc2c1C(=O)C(=O)c1c-2ccc2c1CCCC2(C)C | 5.39
32 | O=Nc1c(-c2c(O)[nH]c3cc(Br)ccc23)[nH]c2ccccc12 | 19
33 | Nc1ncnc2c1ncn2[C@H]1O[C@@H](C(=O)N2CCN(CC(=O)Nc3cccc4c3CNC4=O)CC2)[C@H](O)[C@@H]1O | > 120
34 | CC(C)(C)c1ccc(C(=O)CCCCl)cc1 | 3.84
35 | COc1ccc(C2c3c(oc4ccc(Cl)cc4c3=O)C(=O)N2CCCN(C)C)cc1OC (stereo unspecified) | > 120
36 | Cn1cnc2c1c(=O)[nH]c(=O)n2C | 60.4
37 | CC(C)CCCC(C)N (stereo unspecified) | > 120
38 | CCOc1ccc(S(=O)(=O)NCCc2sc(-c3ccc(C)cc3)nc2C)cc1 | 4.09
39 | COc1ccc(CN2CCC3(CC(C)=NO3)C2)cc1 (stereo unspecified) | 19.2
40 | Cc1cc(O)c(-c2ccc([C@@H](C)CN(C)C)cc2)c2c1[nH]c(=O)c1sccc12 | 95.3
41 | CN(C)CC/C=C1\c2ccccc2Sc2ccc(Cl)cc21 | 24.3
42 | Nc1ccc2cc3ccc(N)cc3nc2c1 | 105
43 | CC(C)C[C@H]1C(=O)N2CCC[C@H]2[C@]2(O)O[C@](NC(=O)[C@@H]3C=C4c5cccc6[nH]c(Br)c(c56)CC4N(C)C3)(C(C)C)C(=O)N12 (stereo partly specified) | 0.89
44 | Cc1cc2c(cc1S(N)(=O)=O)S(=O)(=O)CCC2 | > 120
45 | O=C(c1cnn(-c2cccc(F)c2)c1-n1cccc1)N1CCN(c2ccccc2F)CC1 | 9.4
46 | Nc1cc(=O)[nH]c(N)n1 | 99.2
47 | CC(C)(C)C(=O)OCOP(=O)(COCCn1cnc2c(N)ncnc21)OCOC(=O)C(C)(C)C | 3.13
48 | Cc1nn2c(c1-c1ccccc1Oc1ccccc1)N(Cc1cccc(C#N)c1)CCC2 | 0.77
49 | CCOC(=O)c1ccc(O)cc1 | 61
50 | COC(=O)c1cc(S(N)(=O)=O)ccc1OC | 43.2
51 | CC1=CC(=O)c2ccccc2C1=O | 11.4
52 | CN1CCC2=C(C1)c1ccccc1Cc1ccccc12 | 95

Row | Structure (SMILES) | half-life [min]
53 | C[C@]12C=CC(=O)C=C1CCC1C3C[C@@H](O)[C@](O)(C(=O)CO)[C@@]3(C)C[C@H](O)[C@@]12F (stereo partly specified) | > 120
54 | CC(C)(N)Cc1ccccc1Cl | > 120
55 | OC1(c2ccc(Cl)cc2)CCNCC1 | > 120
56 | CC[C@@H]([C@H](C)O)n1ncn(-c2ccc(N3CCN(c4ccc(OC[C@@H]5CO[C@@](Cn6cncn6)(c6ccc(F)cc6F)C5)cc4)CC3)cc2)c1=O | > 120
57 | CN(C)c1ccc2nc3ccc(=[N+](C)C)cc-3sc2c1 | > 120
58 | Nc1nc(O)c(C2=C3C(=Nc4ccccc43)C(=O)NCC2)[nH]1 | > 120
59 | Cc1ccccc1-n1c(SCc2ccc(Cl)cc2)nc2[nH]ncc2c1=O | 53.2
60 | NC(=NCCCCCCN=C(N)/N=C(\N)Nc1ccc(Cl)cc1)/N=C(\N)Nc1ccc(Cl)cc1 | > 120
61 | CC(C)c1ccc2oc3nc(N)c(C(=O)O)cc3c(=O)c2c1 | > 120
62 | COc1ccc(-c2oc3ncn4nc(COc5c(C)cccc5C)nc4c3c2-c2ccc(OC)cc2)cc1 | 13.2
63 | COc1ccc(CCNc2ncnc3c2c(-c2ccccc2)cn3-c2cccc(Cl)c2)cc1OC | 3.59
64 | Cc1cncn1CCc1nc2c3ccccc3nc(SCC(=O)Nc3cccc(Cl)c3)n2n1 | 11.6
65 | C=CC(=O)Nc1cccc(CN2C(=O)N(c3c(Cl)c(OC)cc(OC)c3Cl)Cc3cnc(NCCCCN(CC)CC)nc32)c1 | 43
66 | C[C@H](N)C(=O)N1CCC(n2nccc2NC(=O)Nc2ccccc2Cl)CC1 | > 120
67 | Cc1cccc(N2CCN(C(=O)CCC(=O)NNc3nc4ccccc4c4nc(C)nn34)CC2C)c1 (stereo unspecified) | 6.71
68 | O=C(NOCC1CC1)c1ccc(F)c(F)c1Nc1ccc(I)cc1Cl | 11.2
69 | Cc1cnc(NC(=O)c2cc(S(=O)(=O)N(C)C)ccc2N2CCCC2)s1 | 24.3
70 | N#Cc1cn([C@@H]2O[C@H](CO)[C@H](O)[C@@H]2O)c2ncnc(N)c12 | > 120
71 | NCCc1ccc(O)cc1 | > 120
72 | O=C(N[C@@H]1CC[C@@H](c2cccc(F)c2F)CN(CC(F)(F)F)C1=O)N1CCC(n2c(=O)[nH]c3ncccc32)CC1 | 60.2
73 | COc1cc(C)c(Sc2cnc(NC(=O)c3ccc(CNC(C)C(C)C)cc3)s2)cc1C(=O)N1CCN(C(C)=O)CC1 (stereo unspecified) | 8.06
74 | COc1ccc(C)cc1Nc1c2c(nc3ccccc13)CCC2 | 29.9
75 | CCOc1cc(=O)n2c(c1C(=O)Nc1ccc(S(N)(=O)=O)cc1)CCCC2 | > 120
76 | CNC(=O)[C@H](Cc1ccccc1)NC(=O)[C@H](CC(C)C)[C@H](CSc1cccs1)C(=O)NO | 110
